According to patent US20220265700A1, “METHODS TO PREVENT, INHIBIT OR TREAT INTERVERTEBRAL DISC DEGENERATION” (University of Iowa Research Foundation, priority 2021, published 2022):
Where two headings read alike, the source gives them in different places.

What was measured:
[1] = tested on: ERK; test: Immunofluorescence staining of phosphorylated ERK; type: cell-based, rabbit
[2] = tested on: nucleus pulposus tissues; test: DHE staining, ex vivo organ culture of transversely cut intervertebral discs; type: cell-based, rabbit; details: 10 mM NAC or […] amobarbital for 24 h after cutting
[3] = tested on: nucleus pulposus (NP); test: DHE staining of IVDs exposed to 100 μM tBHP; type: cell-based, rabbit; details: 100 μM tBHP 30 minutes, then 10 mM NAC 24 hours
[4] = tested on: nucleus pulposus cells; details: for cell viability: normalized by control
[5] = tested on: Nrf2; test: Nrf2 staining, ex vivo organ culture of transversely cut intervertebral discs; type: cell-based, rabbit; details: 10 mM NAC or […] amobarbital for 24 h after cutting
[6] = tested on: SOD2 and Nrf2; test: SOD2 and Nrf2 IHC staining of tBHP-exposed IVDs; type: cell-based, rabbit; details: 100 μM tBHP 30 minutes, then 10 mM NAC 24 hours
[7] = tested on: JNK; test: Immunofluorescence staining of phosphorylated JNK; type: cell-based, rabbit
[8] = tested on: p38; test: Immunofluorescence staining of phosphorylated p38; type: cell-based, rabbit
[9] = Amo stability in HA hydrogel according to USP guidelines; type: physicochemical; details: mixed with Gel-One HA hydrogel, data not shown
Source text: Amo is primarily applied as a sedative-hypnotic to treat sleep disorder and as a preanesthetic agent.

[10] = tested on: NP cells; test: TUNEL assay, ex vivo IVD puncture model; type: cell-based, rabbit; details: 7 days; Amo in hydrogel after disc puncture
Source text: Overall study design is illustrated in FIG. 15A. A total of 36 rabbit thoracic and lumbar motion segments (T11/L2) including two vertebral bodies and one IVD were obtained from New Zealand White (NZW) rabbit cadavers (approximately 10-months old) without radiographic evidence of trauma by X-ray. Under sterile conditions, the segments were dissected by removing the posterior elements and soft tissues. The discs were punctured using a 20-gauge needle with 3 mm-depth, and the needle was held in place for 5 seconds. Discal injury was confirmed by herniated nucleus pulposus (NP) through the needle hole. After the puncture, 5 μl hydrogel (17% F-127/0.425% HA) with or without 2.5 mM Amo was injected into the NP using a 30-gauge Hamilton syringe with a stopper (Thermo Fisher Scientific, Waltham, Mass., USA). […]
Apoptotic cells in the NP were detected using a terminal deoxynucleotidyl transferase dUTP nick end labelling (TUNEL) assay (Abcam, Cambridge, Mass., USA) according to the manufacturer's instructions. […] Then, the sections were labeled with terminal transferase (TdT) enzyme for 1.5 h, detected with blocking buffer for 30 min, developed with working 3,3′-diaminobenzidine (DAB) solution for 15 min, and counterstained with methyl green for 1.5 min. After scanning images, the number of positive cells in each tissue was counted and normalized by the data from the 2-days intact group.

[11] = tested on: Nrf2; test: Nrf2 staining in NP cells under tBHP-induced oxidative stress; details: pre-treated with […] amobarbital 2 h, then 50 μM tBHP 1 h
[12] = tested on: nucleus pulposus cells; test: Mitochondrial ROS production, MitoSOX Red; type: cell-based, rabbit
[13] = tested on: nucleus pulposus cells; test: Mitochondrial membrane potential, JC-1 assay; type: cell-based, rabbit; details: 50 μM tBHP 1 h
[14] = tested on: nucleus pulposus cells; details: 100 μM tBHP exposure
[15] = tested on: human nucleus pulposus cells; details: 400 μM tBHP for 6 h (Xu et al. 2019); cited from earlier work
[16] = tested on: rat nucleus pulposus cells; details: 100 μM tBHP for 24 h (2019 report); cited from earlier work
[17] = tested on: rabbit NP cells; type: cell-based; details: exposed to 100 μM tBHP
[18] = 10 mM NAC, […] amobarbital or 20 μM inhibitor, 50 μM tBHP 1 h

For `CC(=O)N[C@@H](CS)C(=O)O` [NAC, N-acetylcysteine], the “phosphorylation of ERK vs. tBHP” value [1, 18] was “inhibited the phosphorylation”, the “DHE dye oxidation (ROS) in injured NP tissues” value [2] was “dramatically reduced dye oxidation” and the “DHE positive cells compared with non-treated control” value [3] was “dramatic reduction”. The “protective effect on cell viability (cell death)” value ([4]; 0.1-10 mM pre-treatment 2 h prior to 50 μM tBHP, until 24 h) was “significantly prohibited the cell death”, the “concentration at which no cytotoxicity was exhibited” value ([4]; New Zealand White, rabbit, 2 h) was “lower than 10 mM” and the “Nrf2 expression in the cytosol compared with injured control group” value [5] was “approximately 6.8 times”. For the same compound, the “Nrf2 translocation to the nucleus after injury” value [5] was “prevented”, the “oxidative damage in NP cells by SOD2 and Nrf2 IHC staining” value [6] was “reduced oxidative damage” and the “phosphorylation of JNK vs. tBHP” value [7, 18] was “inhibited the phosphorylation”. For the same compound, the “phosphorylation of p38 vs. tBHP” value [8, 18] was “inhibited the phosphorylation”.

For `COc1cccc(-c2cc(=O)c3ccccc3o2)c1N` [PD98059], the “phosphorylation of ERK vs. tBHP” value [1] was “minimized the phosphorylation”.

With `C[S+]([O-])c1ccc(-c2nc(-c3ccncc3)c(-c3ccc(F)cc3)[nH]2)cc1` (stereo not shown) [SB203580] the “phosphorylation of JNK vs. tBHP” value [7] was “minimized the phosphorylation”.

With `CCC1(CCC(C)C)C(=O)NC(=O)NC1=O` [amobarbital] the “phosphorylation of ERK vs. tBHP” value [1] was “inhibited the phosphorylation”, the “Amo stability in hydrogel” value [9] was “stability in human biologic fluids and various conditions” and the “TUNEL-positive (apoptotic) NP cells vs. HG” value [10] was “diminished number of cell apoptosis”. For the same compound, the “protective effect on cell viability (cell death)” value [4] was “significantly prohibited the cell death”, the “Nrf2 expression in the cytosol of NP cells” value [11] was “close to control” and the “Nrf2 expression in the cytosol compared with injured control group” value [5] was ~7.8 times. The “Nrf2 translocation to the nucleus after injury” value [5] was “prevented”, the “phosphorylation of JNK vs. tBHP” value [7] was “inhibited the phosphorylation” and the “phosphorylation of p38 vs. tBHP” value [8] was “inhibited the phosphorylation”. For the same compound, the “MitoSOX-stained cells (imaging)” value [12] was “large decrease”.

For `CC(C)(C)OO` [tBHP, tert-butyl hydrogen peroxide], the “phosphorylation of ERK vs. control” value ([1]; 50 μM tBHP 1 h) was “significantly phosphorylated”, the “ratio of J-aggregate form to monomeric form vs. control” value [13] was “significantly reduced” and the “apoptotic/necrotic cells after tBHP exposure” value [14] was “became apoptotic and/or necrotic cells”. The cell viability ([4]; 25 μM tBHP, 1 h) was 90.8%, the cell viability ([4]; 50 μM tBHP, 1 h) was 77.1% and the “cell loss (viability)” value ([4]; 100-400 μM tBHP, 1 h) was 70.6-72.9%. The viability [15] was 54.3%, the “cell apoptosis relative to control” value [16] was “approximately 7 times” and the “basal oxygen consumption rate (OCR)” value [17] was “increased”. For the same compound, the “rate of phosphorylated JNK compared with control” value ([7]; 50 μM tBHP 1 h) was “approximately 5.9 times”, the “rate of phosphorylated p38 compared with control” value ([8]; 50 μM tBHP 1 h) was ~9.7 times and the “superoxide production (MitoSOX Red)” value ([12]; 25 μM tBHP) was “no superoxide production was observed”.
